Assay results from US20200385396A1, “Compond for treatment or prevention of obesity or diseases related to obesity, and application thereof” (SHANGHAI INSTITUTES FOR BIOLOGICAL SCIENCES, CHINESE …, priority 2017, published 2020).

Test system: Wnt signal
Assay: TOPFlash reporter gene activity test in HEK293T cells
Type: cell-based
Method: The HEK293T cells used for the measurement of reporter gene activity were plated at 20 hours before transfection and cultured to about 50% coverage for the transfection. The transfection method was as described above. For HEK293T cells, transfection was performed according to 20 ng TOPFlash, 20 ng GFP and 460 ng lacZ per well, and Wnt3a or Nesfatin-1/NUCB2 protein was added at 18 hours after transfection to stimulate for 6-8 hours, and the cell was lysed with Boehringer Mannheim Luciferase Assay Kit (200 μl/well) for 15 minutes, 50 μl lysate was added in the fluorometer BIO-TEK Synergy2 (Gene Company Limited) to measure the GFP fluorescence intensity in the cell lysate as an internal standard, and then 20 μl luciferase substrate (Roche) was added for the reaction, the luciferase activity was detected in the chemiluminescence channel, and finally the GFP reading was used as an internal standard for homogenization.
We focus on the three small molecules HLY72, HLY103, and HSS49A (FIG. 3a). […] So that the first biochemical experiment design is: whether these three small molecules can compete for the binding of HLY179 to NUCB2 protein.

C=Cc1cccc2c1N(C)Cc1cc3c(cc1-2)OCO3 [HLY72]
activity of Wnt signal activation: none of them have the activity of Wnt signal activation
